# Source: patent US20090197872A1 (priority 2006, published 2009)
# Where a name gives a salt, the structure may show the parent alone.
# Biological target: T1, α7-subtype of nicotinic receptors (Rattus norvegicus, UniProt Q05941)
# T1 construct: from tissue; host or cells: rat brain
# Experiment: biochemical
# Details: read-out: Inhibition of 3H-α-Bungarotoxine Binding IC50
# T1 sequence (Q05941 23-502): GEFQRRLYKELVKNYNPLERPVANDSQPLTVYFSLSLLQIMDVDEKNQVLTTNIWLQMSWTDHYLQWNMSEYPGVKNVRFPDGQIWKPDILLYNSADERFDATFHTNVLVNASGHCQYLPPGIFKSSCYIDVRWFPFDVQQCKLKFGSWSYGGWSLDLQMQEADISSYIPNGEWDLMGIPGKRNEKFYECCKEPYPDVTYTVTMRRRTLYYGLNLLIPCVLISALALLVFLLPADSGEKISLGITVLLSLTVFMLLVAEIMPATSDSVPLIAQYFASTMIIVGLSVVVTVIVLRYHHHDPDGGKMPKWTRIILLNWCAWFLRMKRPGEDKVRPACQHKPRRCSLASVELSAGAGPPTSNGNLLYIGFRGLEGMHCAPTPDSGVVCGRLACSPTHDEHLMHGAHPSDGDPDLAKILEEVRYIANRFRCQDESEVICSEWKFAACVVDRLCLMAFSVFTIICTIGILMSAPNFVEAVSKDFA
smiles,measurement,value
"O=C(Nc1cnc(N2CCN3CCC2CC3)nc1)Oc1ccccc1 [Compound A2, [2-(1,4-Diaza-bicyclo[3.2.2]non-4-yl)-pyrimidin-5-yl]-carbamic Acid Phenyl Ester Hydrochloric Acid Salt]",IC50,< 300 nM
